One assay has as its target CDK2/Cyclin E1 (Homo sapiens, UniProt P24941). Kind of assay: CDK2/Cyclin E1 TR-FRET biochemical assay, 1 mM ATP. The following applies: 0.15 μM Rb (Ser780)-biotin substrate, 90 min reaction, Table 2. How it is done: (§1) Compounds disclosed herein were tested for inhibition of CDK2/Cyclin E1 or CDK1/Cyclin B kinase in an assay based on the time-resolved fluorescence-resonance energy transfer (TR-FRET) methodology. The assay was carried out in 384-well low volume black plates in a reaction mixture containing CDK2/Cyclin E1 or CDK1/Cyclin B1, 1 mM ATP for CDK2/Cyclin E1 and CDK1/Cyclin B1, 0.15 μM Rb (Ser780)-biotin substrate and 0-10 μM compound in buffer containing 50 mM HEPES pH7.0, 0.02% NaN3, 0.01% BSA, 0.1 mM Orthovanadate, 50 mM MgCl2, 1 mM DTT and 0.005% Tween-20. The kinase was incubated with compound for 60 minutes at room temperature and the reaction was initiated by the addition of ATP and Rb (Ser780)-biotin substrate. After reaction at room temperature for 90 minutes, an equal volume of stop/detection solution was added according to the manufacture's instruction (Cisbio Bioassays). The stop/detection solution contained Streptavidin-XL665 and Anti-pRb (Ser780) mAb-Eu Cryptate in Detection buffer (Cisbio Bioassays). Plates were incubated at room temperature for 60 minutes, and the TR-FRET signals (ex337 nm, em665 nm/620 nm) were recorded on a PHERAstar FSX plate reader (BMG Labtech). The inhibition percentage of CDK2/Cyclin E1 or CDK1/Cyclin B1 kinase activity in presence of increasing concentrations of compounds was calculated based on the ratio of fluorescence at 665 nm to that at 620 nm. The IC50 for each compound was derived from fitting the data to the four-parameter logistic equation by Dotmatics.
A general note: In TR-FRET formats the signal depends on donor and acceptor labels being close together.

The next assay concerns the target CDK1/Cyclin B1 (Homo sapiens, UniProt P06493). Kind of assay: CDK1/Cyclin B1 TR-FRET biochemical assay, 1 mM ATP. Particulars: 0.15 μM Rb (Ser780)-biotin substrate, 90 min reaction, Table 2. The procedure:
as §1

Results on 23 molecules are retold here after patent US20260200897A1, “4-((5-(3-(4-(PYRIDIN-2-YL)CYCLOPENTYL)-1H-PYRAZOL-3-YL)AMINO)-BENZENESULFONAMIDE DERIVATIVES AND SIMILAR COMPOUNDS AS CDK INHIBITORS FOR THE TREATMENT OF CANCER” (BeOne Medicines I GmbH, priority 2023, published 2026).

By IC50 is commonly meant the concentration at which inhibition is half-maximal.

Chain of CDK1/Cyclin B1 (P06493 whole entry): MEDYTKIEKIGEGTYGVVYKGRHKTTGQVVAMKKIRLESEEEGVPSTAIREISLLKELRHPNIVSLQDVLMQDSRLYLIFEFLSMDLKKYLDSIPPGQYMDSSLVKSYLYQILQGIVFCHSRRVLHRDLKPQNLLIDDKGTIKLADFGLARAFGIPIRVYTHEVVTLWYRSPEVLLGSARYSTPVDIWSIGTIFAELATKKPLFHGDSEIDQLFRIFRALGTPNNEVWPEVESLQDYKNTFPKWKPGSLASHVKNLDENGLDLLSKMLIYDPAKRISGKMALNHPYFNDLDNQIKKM
Chain of CDK1/Cyclin B1 (P14635 whole entry partner): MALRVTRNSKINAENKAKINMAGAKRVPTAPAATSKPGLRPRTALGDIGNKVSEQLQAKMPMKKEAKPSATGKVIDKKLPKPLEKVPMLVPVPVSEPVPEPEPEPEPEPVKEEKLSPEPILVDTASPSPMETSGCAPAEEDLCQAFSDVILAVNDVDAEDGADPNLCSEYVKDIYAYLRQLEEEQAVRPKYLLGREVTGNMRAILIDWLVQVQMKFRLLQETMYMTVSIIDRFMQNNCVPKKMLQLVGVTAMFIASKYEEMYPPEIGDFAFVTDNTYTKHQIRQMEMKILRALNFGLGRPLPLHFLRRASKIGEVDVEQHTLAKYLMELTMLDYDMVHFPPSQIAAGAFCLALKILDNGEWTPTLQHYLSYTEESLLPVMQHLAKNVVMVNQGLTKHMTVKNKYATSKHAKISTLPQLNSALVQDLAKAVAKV

In the case of `CC(C)c1cnc(C2CCC(c3cc(Nc4ccc5c(c4F)CNS5(=O)=O)n[nH]3)C2)o1` (single isomer, unassigned) [Example 109b, 4-fluoro-5-((5-(3-(5-isopropyloxazol-2-yl)cyclopentyl)-1H-pyrazol-3-yl)amino)-2,3-dihydrobenzo[d]isothiazole 1,1-dioxide], the figures for the IC50 on CDK2/Cyclin E1 and on CDK1/Cyclin B1 were 0.172 µM and greater than 10 µM, respectively.

On to `CC(C)(C)c1cnc(C2CCC(c3cc(Nc4ccc(S(N)(=O)=O)cc4F)n[nH]3)C2)o1` (single isomer, unassigned) [Example 6d, 4-((5-(3-(5-(tert-butyl)oxazol-2-yl)cyclopentyl)-1H-pyrazol-3-yl)amino)-3-fluorobenzenesulfonamide], for which the IC50 is 0.503 µM against CDK2/Cyclin E1 and greater than 10 µM on CDK1/Cyclin B1.

For `CN1c2ccc(Nc3cc(C4CCC(c5ncc(C(C)(C)C)o5)C4)[nH]n3)cc2CS1(=O)=O` (stereo not shown) [Example 140, 5-((5-(3-(5-(tert-butyl)oxazol-2-yl)cyclopentyl)-1H-pyrazol-3-yl)amino)-1-methyl-1,3-dihydrobenzo[c]isothiazole 2,2-dioxide], the values for the IC50 against CDK2/Cyclin E1 and at CDK1/Cyclin B1 were 0.006 µM and 0.624 µM, respectively.

On to `CC(C)(C)c1ccnc(C2CCC(c3cc(Nc4cc5c(cc4F)S(=O)(=O)NC5)n[nH]3)C2)c1` (stereo not shown) [Example 13, 5-((5-(3-(4-(tert-butyl)pyridin-2-yl)cyclopentyl)-1H-pyrazol-3-yl)amino)-6-fluoro-2,3-dihydrobenzo[d]isothiazole 1,1-dioxide], for which the IC50 against CDK2/Cyclin E1 is 0.462 µM; at CDK1/Cyclin B1 it was greater than 10 µM.

On to `CC(C)(C)c1ccnc(C2CCC(c3cc(Nc4ccc(S(N)(=O)=O)cc4F)n[nH]3)C2)n1` (stereo not shown) [Example 4, 4-((5-(3-(4-(tert-butyl)pyrimidin-2-yl)cyclopentyl)-1H-pyrazol-3-yl)amino)-3-fluorobenzenesulfonamide], for which the IC50 against CDK2/Cyclin E1 was found to be 0.0071 µM; against CDK1/Cyclin B1, 0.848 µM.

`CC(C)(C)c1coc(C2CCC(c3cc(Nc4ccc5c(c4)CS(=O)(=O)N5)n[nH]3)C2)n1` (stereo not shown) [Example 136, 5-((5-(3-(4-(tert-butyl)oxazol-2-yl)cyclopentyl)-1H-pyrazol-3-yl)amino)-1,3-dihydrobenzo[c]isothiazole 2,2-dioxide]: the IC50 against CDK2/Cyclin E1 came out at 0.06 µM; at CDK1/Cyclin B1 it was 4.95 µM.

In the case of `CC(C)(C)c1cnc(C2CCC(c3cc(Nc4cc5c(cc4F)S(=O)(=O)NC5)n[nH]3)C2)o1` (single isomer, unassigned) [Example 17b, 5-((5-(3-(5-(tert-butyl)oxazol-2-yl)cyclopentyl)-1H-pyrazol-3-yl)amino)-6-fluoro-2,3-dihydrobenzo[d]isothiazole 1,1-dioxide], the figures for the half-inhibitory concentration (IC50) on CDK2/Cyclin E1 and against CDK1/Cyclin B1 were 7.71 µM and greater than 10 µM, respectively.

Take `COc1cccc(C2CCC(c3cc(Nc4ccc5c(c4F)CNS5(=O)=O)n[nH]3)C2)n1` (stereo not shown) [Example 121, 4-fluoro-5-((5-(3-(6-methoxypyridin-2-yl)cyclopentyl)-1H-pyrazol-3-yl)amino)-2,3-dihydrobenzo[d]isothiazole 1,1-dioxide]: the results for the IC50 on CDK2/Cyclin E1 and against CDK1/Cyclin B1 were 3.87 µM and greater than 10 µM, respectively.

`CC(C)(C)c1ccc(C2CCC(c3cc(Nc4ccc5c(c4F)CS(=O)(=O)N5)n[nH]3)C2)nc1` (stereo not shown) [Example 156, 5-((5-(3-(5-(tert-butyl)pyridin-2-yl)cyclopentyl)-1H-pyrazol-3-yl)amino)-4-fluoro-1,3-dihydrobenzo[c]isothiazole 2,2-dioxide]: the IC50 was 2.02 µM at CDK2/Cyclin E1 and greater than 10 µM at CDK1/Cyclin B1.

Take `CC(C)(C)c1cnc(C2CCC(c3cc(Nc4ccc5c(c4F)CNS5(=O)=O)n[nH]3)C2)s1` (stereo not shown) [Example 95, 5-((5-(3-(5-(tert-butyl)thiazol-2-yl)cyclopentyl)-1H-pyrazol-3-yl)amino)-4-fluoro-2,3-dihydrobenzo[d]isothiazole 1,1-dioxide]: the IC50 against CDK2/Cyclin E1 is 7.2 µM; at CDK1/Cyclin B1, greater than 10 µM.

On to `CC(C)c1cnc(C2CCC(c3cc(Nc4ccc5c(c4F)CCS(=O)(=O)N5)n[nH]3)C2)o1` (stereo not shown) [Example 167, 5-fluoro-6-((5-(3-(5-isopropyloxazol-2-yl)cyclopentyl)-1H-pyrazol-3-yl)amino)-3,4-dihydro-1H-benzo[c][1,2]thiazine 2,2-dioxide], for which the IC50 was 0.008 µM at CDK2/Cyclin E1 and 1.1 µM against CDK1/Cyclin B1.

As for `CC(C)c1ccnc(C2CCC(c3cc(Nc4ccc(S(N)(=O)=O)cc4F)n[nH]3)C2)n1` (stereo not shown) [Example 5, 3-fluoro-4-((5-(3-(4-isopropylpyrimidin-2-yl)cyclopentyl)-1H-pyrazol-3-yl)amino)benzenesulfonamide], the IC50 is 0.0046 µM against CDK2/Cyclin E1 and 0.656 µM against CDK1/Cyclin B1.

As for `CC(C)(C)n1cc(C2CCC(c3cc(Nc4ccc5c(c4F)CNS5(=O)=O)n[nH]3)C2)cn1` (stereo not shown) [Example 99, 5-((5-(3-(1-(tert-butyl)-1H-pyrazol-4-yl)cyclopentyl)-1H-pyrazol-3-yl)amino)-4-fluoro-2,3-dihydrobenzo[d]isothiazole 1-dioxide], the figures for the IC50 on CDK2/Cyclin E1 and against CDK1/Cyclin B1 were 3.29 µM and greater than 10 µM, respectively.

On to `CC(C)(C)c1cc(O[C@@H]2CC[C@H](c3cc(Nc4ccc5c(c4F)CNS5(=O)=O)n[nH]3)C2)ncn1` (relative stereo) [Example 38, cis-5-((5-(3-((6-(tert-butyl)pyrimidin-4-yl)oxy)cyclopentyl)-1H-pyrazol-3-yl)amino)-4-fluoro-2,3-dihydrobenzo[d]isothiazole 1,1-dioxide], for which the IC50 against CDK2/Cyclin E1 was 2.37 µM; at CDK1/Cyclin B1 it was greater than 10 µM.

Regarding `CC(C)(C)c1cc(C2CCC(c3cc(Nc4ccc5c(c4F)CNS5(=O)=O)n[nH]3)C2)[nH]n1` (stereo not shown) [Example 100, 5-((5-(3-(3-(tert-butyl)-1H-pyrazol-5-yl)cyclopentyl)-1H-pyrazol-3-yl)amino)-4-fluoro-2,3-dihydrobenzo[d]isothiazole 1,1-dioxide], the IC50 was 0.173 µM against CDK2/Cyclin E1 and greater than 10 µM against CDK1/Cyclin B1.

Regarding `CC(C)(C)c1cnc(C2CCC(c3cc(Nc4ccc5c(c4)CN=S5(C)=O)n[nH]3)C2)o1` (single isomer, unassigned) [Example 169a, 5-((5-(3-(5-(tert-butyl)oxazol-2-yl)cyclopentyl)-1H-pyrazol-3-yl)amino)-1-methyl-3H-1λ^4-benzo[d]isothiazole 1-oxide], the IC50 on CDK2/Cyclin E1 was 0.0006 µM; at CDK1/Cyclin B1 it was 0.189 µM.

In the case of `CC(C)(C)c1cnc(C2CCC(c3cc(Nc4ccc5c(c4)CN=S5(C)=O)n[nH]3)C2)o1` (single isomer, unassigned) [Example 169b, 5-((5-(3-(5-(tert-butyl)oxazol-2-yl)cyclopentyl)-1H-pyrazol-3-yl)amino)-1-methyl-3H-1λ^4-benzo[d]isothiazole 1-oxide], the IC50 against CDK2/Cyclin E1 is 0.021 µM; on CDK1/Cyclin B1, 2.35 µM.

`Cc1ccnc(C2CCC(c3cc(Nc4ccc5c(c4F)CNS5(=O)=O)n[nH]3)C2)n1` (stereo not shown) [Example 124, 4-fluoro-5-((5-(3-(4-methylpyrimidin-2-yl)cyclopentyl)-1H-pyrazol-3-yl)amino)-2,3-dihydrobenzo[d]isothiazole 1,1-dioxide]: the figures for the IC50 on CDK2/Cyclin E1 and against CDK1/Cyclin B1 were 0.107 µM and 8.47 µM, respectively.

In the case of `CC(C)c1cnc(C2CCC(c3cc(Nc4cc5c(cc4F)S(=O)(=O)NC5)n[nH]3)C2)o1` (stereo not shown) [Example 18, 6-fluoro-5-((5-(3-(5-isopropyloxazol-2-yl)cyclopentyl)-1H-pyrazol-3-yl)amino)-2,3-dihydrobenzo[d]isothiazole 1,1-dioxide], the IC50 against CDK2/Cyclin E1 was 0.042 µM; against CDK1/Cyclin B1, greater than 10 µM.

In the case of `CC(C)(C)c1cnn([C@@H]2CC[C@H](c3cc(Nc4ccc5c(c4F)CNS5(=O)=O)n[nH]3)C2)c1` (relative stereo) [Example 89, cis-5-((5-(3-(4-(tert-butyl)-1H-pyrazol-1-yl)cyclopentyl)-1H-pyrazol-3-yl)amino)-4-fluoro-2,3-dihydrobenzo[d]isothiazole 1,1-dioxide], the results for the IC50 on CDK2/Cyclin E1 and on CDK1/Cyclin B1 were 0.351 µM and greater than 10 µM, respectively.

Turning to `CC(C)c1cnc(C2CCC(c3cc(Nc4ccc5c(c4F)CNS5(=O)=O)n[nH]3)C2)o1` (single isomer, unassigned) [Example 109c, 4-fluoro-5-((5-(3-(5-isopropyloxazol-2-yl)cyclopentyl)-1H-pyrazol-3-yl)amino)-2,3-dihydrobenzo[d]isothiazole 1,1-dioxide], the IC50 at CDK2/Cyclin E1 is 1.81 µM; against CDK1/Cyclin B1, greater than 10 µM.

For the molecule `Cc1cc(C(C)(C)C)cc(C2CCC(c3cc(Nc4ccc(S(N)(=O)=O)cc4F)n[nH]3)C2)n1` (stereo not shown) [Example 2, 4-((5-(3-(4-(tert-butyl)-6-methylpyridin-2-yl)cyclopentyl)-1H-pyrazol-3-yl)amino)-3-fluorobenzenesulfonamide], the IC50 at CDK2/Cyclin E1 is 5.68 µM; against CDK1/Cyclin B1 it was greater than 10 µM.

Turning to `CC(C)(C)c1ccc(C2CCC(c3cc(Nc4ccc5c(c4F)CS(=O)(=O)C5)n[nH]3)C2)o1` (stereo not shown) [Example 176, 5-((5-(3-(5-(tert-butyl)furan-2-yl)cyclopentyl)-1H-pyrazol-3-yl)amino)-4-fluoro-1,3-dihydrobenzo[c]thiophene 2,2-dioxide], the IC50 at CDK2/Cyclin E1 was 0.438 µM; against CDK1/Cyclin B1, greater than 10 µM.
